Assay: osmotic coefficient (dimensionless); mn = molality of the nth substance listed, in mol/kg
Details: 101 kPa, Liquid, Vapor pressure osmometry

CCOS(=O)(=O)[O-].CCn1cc[n+](C)c1 [1-ethyl-3-methylimidazolium ethyl sulfate] + O
osmotic coefficient
Details	298.15 K	308.15 K	318.15 K	328.15 K
m1 = 0.0086	0.973	0.981	1.019	1.018
m1 = 0.0185	0.957	0.943	0.972	0.975
m1 = 0.0284	0.937	0.921	0.934	0.955
m1 = 0.0376	0.921	0.917	0.93	0.936
m1 = 0.057	0.871	0.862	0.868	0.886
m1 = 0.0749	0.852	0.862	0.859	0.858
m1 = 0.0938	0.83	0.838	0.845	0.85
m1 = 0.1269	0.815	0.817	0.831	0.842
m1 = 0.1704	0.782	0.797	0.813	0.815
m1 = 0.2087	0.774	0.779	0.797	0.815
m1 = 0.2648	0.754	0.764	0.797	0.8
m1 = 0.3276	0.751	0.766	0.793	0.796
m1 = 0.4235	0.736	0.755	0.776	0.787
m1 = 0.5106	0.724	0.745	0.772	0.781
m1 = 0.6979	0.712	0.727	0.742	0.755
m1 = 0.8919	0.706	0.721	0.73	0.747
m1 = 1.12	0.697	0.711	0.717	0.729
m1 = 1.606	0.696	0.707	0.715	0.719
m1 = 1.889	0.694	0.707	0.717	0.726
m1 = 2.763	0.733	0.747	0.759	0.766
